melting point [°C]	Structure (SMILES)
270 to 271	Fc1cccc(Cl)c1[C@@H]1C[C@H](c2ccccc2)Nc2ncnn21 (relative stereo) [Example 37, cis-7-(2-Chloro-6-fluorophenyl)-5-phenyl-4,5,6,7-tetrahydro-[1,2,4]triazolo[1,5-a]pyrimidine]
237	Fc1cccc(Cl)c1C1C=C(c2ccc3ccccc3c2)Nc2ncnn21 (centres unmarked) [Example 12, 7-(2-Chloro-6-fluorophenyl)-5-(naphthalen-2-yl)-4,7-dihydro-[1,2,4]triazolo[1,5-a]pyrimidine]
221 to 222	COc1ccc([C@H]2C[C@@H](c3c(F)cccc3Cl)n3ncnc3N2)cc1 (relative stereo) [Example 30, cis-7-(2-Chloro-6-fluorophenyl)-5-(4-methoxyphenyl)-4,5,6,7-tetrahydro-[1,2,4]triazolo[1,5-a]pyrimidine]
252 to 254	Fc1cccc(Cl)c1[C@@H]1C[C@H](c2ccc(Cl)c(Cl)c2)Nc2ncnn21 (relative stereo) [Example 33, cis-7-(2-Chloro-6-fluorophenyl)-5-(3,4-dichlorophenyl)-4,5,6,7-tetrahydro-[1,2,4]triazolo[1,5-a]pyrimidine]
246 to 247	Fc1cccc(Cl)c1[C@@H]1C[C@H](c2ccc(Br)cc2)Nc2ncnn21 (relative stereo) [Example 28, cis-5-(4-Bromophenyl)-7-(2-chloro-6-fluorophenyl)-4,5,6,7-tetrahydro-[1,2,4]triazolo[1,5-a]pyrimidine]
202 to 204	Clc1ccc([C@H]2C[C@@H](c3ccccc3Cl)n3ncnc3N2)cc1 (relative stereo) [Example 22, cis-7-(2-Chlorophenyl)-5-(4-chlorophenyl)-4,5,6,7-tetrahydro[1,2,4]triazolo[1,5-a]pyrimidine]
220 to 221	CCc1ccc(C2=CC(c3c(F)cccc3Cl)n3ncnc3N2)cc1 (centres unmarked) [Example 9, 7-(2-Chloro-6-fluorophenyl)-5-(4-ethylphenyl)-4,7-dihydro-[1,2,4]triazolo[1,5-a]pyrimidine]
267	Fc1cccc(Cl)c1C1C=C(c2ccc(-c3ccccc3)cc2)Nc2ncnn21 (centres unmarked) [Example 11, 5-([1,1′-Biphenyl]-4-yl)-7-(2-chloro-6-fluorophenyl)-4,7-dihydro-[1,2,4]triazolo[1,5-a]pyrimidine]
230 to 231	CCc1ccc([C@H]2C[C@@H](c3c(F)cccc3Cl)n3ncnc3N2)cc1 (relative stereo) [Example 29, cis-7-(2-Chloro-6-fluorophenyl)-5-(4-ethylphenyl)-4,5,6,7-tetrahydro-[1,2,4]triazolo[1,5-a]pyrimidine]
267 to 269	Fc1cccc(Cl)c1[C@@H]1C[C@H](c2ccc(Cl)cc2Cl)Nc2ncnn21 (relative stereo) [Example 34, cis-7-(2-Chloro-6-fluorophenyl)-5-(2,4-dichlorophenyl)-4,5,6,7-tetrahydro-[1,2,4]triazolo[1,5-a]pyrimidine]
271 to 272	Fc1cccc(Cl)c1[C@@H]1C[C@H](c2ccccc2Cl)Nc2ncnn21 (relative stereo) [Example 25, cis-7-(2-Chloro-6-fluorophenyl)-5-(2-chlorophenyl)-4,5,6,7-tetrahydro-[1,2,4]triazolo[1,5-a]pyrimidine]
217 to 218	Cc1ccc(C2=CC(c3c(F)cccc3Cl)n3ncnc3N2)cc1C (centres unmarked) [Example 16, 7-(2-Chloro-6-fluorophenyl)-5-(3,4-dimethylphenyl)-4,7-dihydro-[1,2,4]triazolo[1,5-a]pyrimidine]
262 to 263	Fc1cccc(Cl)c1[C@@H]1C[C@H](c2cccc(Cl)c2)Nc2ncnn21 (relative stereo) [Example 26, cis-7-(2-Chloro-6-fluorophenyl)-5-(3-chlorophenyl)-4,5,6,7-tetrahydro-[1,2,4]triazolo[1,5-a]pyrimidine]
209 to 211	Fc1cccc(Cl)c1C1C=C(c2ccc(Cl)cc2Cl)Nc2ncnn21 (centres unmarked) [Example 14, 7-(2-Chloro-6-fluorophenyl)-5-(2,4-dichlorophenyl)-4,7-dihydro-[1,2,4]triazolo[1,5-a]pyrimidine]
224 to 225	Fc1ccc([C@@H]2C[C@H](c3ccc(Cl)cc3)Nc3ncnn32)c(Cl)c1 (relative stereo) [Example 21, cis-7-(2-Chloro-4-fluorophenyl)-5-(4-chlorophenyl)-4,5,6,7-tetrahydro-[1,2,4]triazolo[1,5-a]pyrimidine]
203 to 204	Fc1ccc(C2=CC(c3c(F)cccc3Cl)n3ncnc3N2)cc1 (centres unmarked) [Example 7, 7-(2-Chloro-6-fluorophenyl)-5-(4-fluorophenyl)-4,7-dihydro-[1,2,4]triazolo[1,5-a]pyrimidine]
232	Fc1cccc(Cl)c1[C@@H]1C[C@H](c2ccccn2)Nc2ncnn21 (relative stereo) [Example 38, cis-7-(2-Chloro-6-fluorophenyl)-5-(pyridin-2-yl)-4,5,6,7-tetrahydro-[1,2,4]triazolo[1,5-a]pyrimidine]
186 to 188	Fc1ccc(C2=CC(c3c(F)cccc3Cl)n3ncnc3N2)c(F)c1 (centres unmarked) [Example 15, 7-(2-Chloro-6-fluorophenyl)-5-(2,4-difluorophenyl)-4,7-dihydro-[1,2,4]triazolo[1,5-a]pyrimidine]

melting point [°C]	Structure (SMILES)
194 to 195	CC(C)c1ccc([C@@H]2C[C@H](c3ccc(Cl)cc3)Nc3ncnn32)cc1 (relative stereo) [Example 23, cis-5-(4-Chlorophenyl)-7-(4-isopropylphenyl)-4,5,6,7-tetrahydro[1,2,4]triazolo[1,5-a]pyrimidine]
238 to 239	Fc1cccc(Cl)c1-c1cc(-c2ccc(Cl)cc2)nc2ncnn12 [Example 17, 7-(2-Chloro-6-fluorophenyl)-5-(4-chlorophenyl)-[1,2,4]triazolo[1,5-a]pyrimidine]
192 to 193	Fc1cccc(Cl)c1C1C=C(c2ccccc2Cl)Nc2ncnn21 (centres unmarked) [Example 5, 7-(2-Chloro-6-fluorophenyl)-5-(2-chlorophenyl)-4,7-dihydro-[1,2,4]triazolo[1,5-a]pyrimidine]
213 to 215	Fc1cccc(Cl)c1C1C=C(c2ccc(Cl)cc2)Nc2ncnn21 (centres unmarked) [Example 1, 7-(2-Chloro-6-fluorophenyl)-5-(4-chlorophenyl)-4,7-dihydro-[1,2,4]triazolo[1,5-a]pyrimidine]
224 to 225	Fc1cccc(Cl)c1[C@@H]1C[C@H](c2ccc3ccccc3c2)Nc2ncnn21 (relative stereo) [Example 32, cis-7-(2-Chloro-6-fluorophenyl)-5-(naphthalen-2-yl)-4,5,6,7-tetrahydro-[1,2,4]triazolo[1,5-a]pyrimidine]
246 to 247	Fc1cccc(Cl)c1C1C=C(c2ccc(Cl)c(Cl)c2)Nc2ncnn21 (centres unmarked) [Example 13, 7-(2-Chloro-6-fluorophenyl)-5-(3,4-dichlorophenyl)-4,7-dihydro-[1,2,4]triazolo[1,5-a]pyrimidine]
246 to 247	Clc1ccc([C@H]2C[C@@H](c3c(Cl)cccc3Cl)n3ncnc3N2)cc1 (relative stereo) [Example 19, cis-5-(4-Chlorophenyl)-7-(2,6-dichlorophenyl)-4,5,6,7-tetrahydro-[1,2,4]triazolo[1,5-a]pyrimidine]
213 to 215	Fc1cccc(Cl)c1[C@@H]1C[C@H](c2ccc(-c3ccccc3)cc2)Nc2ncnn21 (relative stereo) [Example 31, cis-5-([1,1′-Biphenyl]-4-yl)-7-(2-chloro-6-fluorophenyl)-4,5,6,7-tetrahydro-[1,2,4]triazolo[1,5-a]pyrimidine]
210 to 212	Clc1ccc([C@H]2C[C@@H](c3ccccc3)n3ncnc3N2)cc1 (relative stereo) [Example 24, cis-5-(4-Chlorophenyl)-7-phenyl-4,5,6,7-tetrahydro-[1,2,4]triazolo[1,5-a]pyrimidine]
217 to 218	COc1ccc(C2=CC(c3c(F)cccc3Cl)n3ncnc3N2)cc1 (centres unmarked) [Example 10, 7-(2-Chloro-6-fluorophenyl)-5-(4-methoxyphenyl)-4,7-dihydro-[1,2,4]triazolo[1,5-a]pyrimidine]
240 to 241	Fc1ccc([C@H]2C[C@@H](c3c(F)cccc3Cl)n3ncnc3N2)cc1 (relative stereo) [Example 27, cis-7-(2-Chloro-6-fluorophenyl)-5-(4-fluorophenyl)-4,5,6,7-tetrahydro-[1,2,4]triazolo[1,5-a]pyrimidine]
242 to 243	Fc1cccc(Cl)c1C1C=C(c2ccc(Br)cc2)Nc2ncnn21 (centres unmarked) [Example 8, 5-(4-Bromophenyl)-7-(2-chloro-6-fluorophenyl)-4,7-dihydro-[1,2,4]triazolo[1,5-a]pyrimidine]
225	Fc1ccc([C@H]2C[C@@H](c3c(F)cccc3Cl)n3ncnc3N2)c(F)c1 (relative stereo) [Example 35, cis-7-(2-Chloro-6-fluorophenyl)-5-(2,4-difluorophenyl)-4,5,6,7-tetrahydro-[1,2,4]triazolo[1,5-a]pyrimidine]
246 to 248	Fc1cccc(Cl)c1C1C=C(c2cccc(Cl)c2)Nc2ncnn21 (centres unmarked) [Example 6, 7-(2-Chloro-6-fluorophenyl)-5-(3-chlorophenyl)-4,7-dihydro-[1,2,4]triazolo[1,5-a]pyrimidine]
223	Cc1ccc([C@H]2C[C@@H](c3c(F)cccc3Cl)n3ncnc3N2)cc1C (relative stereo) [Example 36, cis-7-(2-Chloro-6-fluorophenyl)-5-(3,4-dimethylphenyl)-4,5,6,7-tetrahydro-[1,2,4]triazolo[1,5-a]pyrimidine]
235	Clc1ccc(C2=CC(c3c(Cl)cccc3Cl)n3ncnc3N2)cc1 (centres unmarked) [Example 2, 5-(4-Chlorophenyl)-7-(2,6-dichlorophenyl)-4,7-dihydro-[1,2,4]triazolo[1,5-a]pyrimidine]
250 to 251	Fc1ccc(C2C=C(c3ccc(Cl)cc3)Nc3ncnn32)c(Cl)c1 (centres unmarked) [Example 4, 7-(2-Chloro-4-fluorophenyl)-5-(4-chlorophenyl)-4,7-dihydro-[1,2,4]triazolo[1,5-a]pyrimidine]

— patent US9533990B2, “Inhibitors of secretion of hepatitis B virus antigens” (priority 2010, dated 2017)
